US6503928B2, “Arylpiperidine and aryl-1,2,5,6-tetrahydropyridine amide derivatives” (Wyeth, priority 1998, dated 2003)
Counter-ions that a name gives are not always drawn.

Assays:
human 5HT1A receptor [1] = molecular target: T1, human 5HT1A receptor (Homo sapiens, UniProt P08908); assay: 5-HT1A receptor binding assay ([3H] 8-OH-DPAT displacement); conditions: displacement of [3H] 8-OH-DPAT, CHO cells stably transfected with human 5HT1A receptor
T1 construct: expressed in transfected cells; host or cells: CHO cells (stably transfected)
T1 sequence (P08908 1-422): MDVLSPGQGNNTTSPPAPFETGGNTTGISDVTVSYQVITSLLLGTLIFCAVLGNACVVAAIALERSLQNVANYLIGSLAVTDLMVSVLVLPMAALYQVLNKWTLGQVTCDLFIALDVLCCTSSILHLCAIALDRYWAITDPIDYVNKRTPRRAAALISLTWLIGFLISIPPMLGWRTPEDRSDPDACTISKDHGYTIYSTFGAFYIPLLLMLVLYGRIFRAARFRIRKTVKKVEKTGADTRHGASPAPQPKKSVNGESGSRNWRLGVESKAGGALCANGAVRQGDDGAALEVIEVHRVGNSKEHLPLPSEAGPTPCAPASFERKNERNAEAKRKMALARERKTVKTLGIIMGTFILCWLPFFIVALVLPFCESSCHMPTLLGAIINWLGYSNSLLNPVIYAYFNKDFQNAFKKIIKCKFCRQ
Procedure: 5-HT1A Receptor Binding Assay
High affinity for the serotonin 5-HT1A receptor was established by testing the compound's ability to displace [^3H] 8-OH-DPAT bindino in CHO cells stably transfected with human 5HT1A receptor. Stably transfected CHO cells are grown in DMEM containing 10% heat inactivated FBS and non-essential amino acids. Cells are scraped off the plate, transferred to centrifuge tubes, and washed twice by centrifugation (2000 rpm for 10 min., 4° C.) in buffer (50 mM Tris pH 7.5). The resulting pellets are aliquoted and placed at −80° C. On the day of assay, the cells are thawed on ice and resuspended in buffer. The binding assay is performed in a 96 well microtiter plate in a total volume of 250 μL. Non-specific binding is determined in the presence of […] 5-HT, final ligand concentration is 1.5 nM. Following a 30 minute incubation at room temperature, the reaction is terminated by the addition of ice cold buffer and rapid filtration through a GF/B filter presoaked for 30 minutes in 0.5% PEI. Compounds are initially tested in a single point assay to determine percent inhibition at […], and Ki values are determined for the active compounds.

human 5HT1A receptor [2] = molecular target: T1, human 5HT1A receptor; assay: 5-HT1A receptor intrinsic activity assay (cAMP); type: cell-based; conditions: for IC50: antagonist mode: reversal of agonist-induced activity, antagonist preincubated 20 minutes before agonist and forskolin; for EC50: agonist mode: reversal of forskolin-stimulated cAMP in CHO cells transfected with human 5-HT1A
Procedure: 5-HT1A Receptor Intrinsic Activity Assay
The intrinsic activity of compounds of the present invention was established by testing the claimed compounds ability to reverse the stimulation of cyclic adenosinemonophosphate (cAMP) in CHO cells stably transfected with the human 5-HT1A receptor.
Stably transfected CHO cells were grown in DMEM containing 10% heat inactivated FBS and non-essential amino acids. The cells are plated at a density of […] cells per well in a 24 well plate and incubated for 2 days in a CO2 incubator. On the second day, the media is replaced with 0.5 mL treatment buffer (DMEM+25 mM HEPES, 5 mM theophylline, 10 μM pargyline) and incubated for 10 minutes at 37° C. Wells are treated with forskolin (1 μM final concentration) followed immediately by the test compound (0.1 and 1 μM for initial screen) and incubated for an additional 10 minutes at 37° C. The reaction is terminated by removal of the media and addition of 0.5 mL ice cold assay buffer (supplied in the RIA kit). Plates are stored at −20° C. prior to assessment of cAMP formation by RIA. EC50 values are determined for the active test compounds. Compounds shown to have no agonist activities (Emax=0%) are further analyzed for their ability to reverse agonist-induced activity. In separate experiments, 6 concentrations of antagonist are preincubated for 20 minutes prior to the addition of agonist and forskolin. Cells are harvested as described above. The cAMP kit is supplied by Amersham and the RIA is performed as per kit instructions, and calculations of IC50 performed by GraphPad Prism.

[3] = agonist mode: reversal of forskolin-stimulated cAMP, Emax=0% means no agonist activity

Compound | melting point [°C] | Ki (human 5HT1A receptor [1]) [nM] | other results
COc1ccccc1C1CCN(C[C@@H](Cc2ccncc2)N(C)C(=O)C2CCCCC2)CC1 (as salt: hydrochloride) [Example 10, Cyclohexanecarboxylic acid {(1R)-2-[4-(2-Methoxy-phenyl)-piperidin-1-yl]-1-pyridin-4-ylmethyl-ethyl}-methyl-amide] | 158 to 160 | – | –
COc1ccc(F)cc1C1CCN(C[C@@H](Cc2ccccc2)N(C)C(=O)C2(C)CCCCC2)CC1 (as salt: fumarate) [Example 1, 1-Methyl-cyclohexanecarboxylic Acid {(1R)-1-Benzyl-2-[4-(5-fluoro-2-methoxy-phenyl)-piperidine-1-yl]-ethyl}-methyl-amide] | 160 to 165 | – | –
COc1ccccc1C1=CCN(C[C@@H](Cc2ccccc2)NC(=O)C2CCCCC2)CC1 (as salt: fumarate) [Example 3, (R)-Cyclohexanecarboxylic Acid {1-Benzyl-2-[4-(2-methoxy-phenyl)-3,6-dihydro-2H-pyridin-1-yl]-ethyl}-amide] | 146 to 148 | – | –
COc1ccccc1C1CCN(C[C@@H](Cc2ccccc2)NC(=O)C2CCCCC2)CC1 (as salt: fumarate) [Example 6, (R)-Cyclohexanecarboxylic Acid {1-Benzyl-2-[4-(2-methoxy-phenyl)-piperidin-1-yl]-ethyl}-amide] | 103 to 105 | – | –
COc1ccccc1C1CCN(C[C@@H](Cc2ccncc2)NC(=O)C2(C)CCCCC2)CC1 (as salt: fumarate) [Example 8, 1-Methyl-cyclohexanecarboxylic Acid {(1R)-2-[4-(2-Methoxy-phenyl)-piperidin-1-yl]-1-pyridin-4-ylmethyl-ethyl}-amide] | 108 to 110 | – | –
COc1ccccc1C1CCN(C[C@@H](Cc2cccnc2)N(C)C(=O)C2CCCCC2)CC1 [Example 9, Cyclohexanecarboxylic Acids {(1R)-2-[4-(2-Methoxy-phenyl)-piperidin-1-yl]-1-pyridin-3-ylmethyl-ethyl}-methyl-amide] | – | 1.77 | Emax (human 5HT1A receptor [2]; [3]): 0%
COc1ccccc1C1CCN(C[C@@H](Cc2cccnc2)NC(=O)C2(C)CCCCC2)CC1 (as salt: fumarate) [Example 7, 1-Methyl-cyclohexanecarboxylic Acid {(1R)-2-[4-(2-Methoxy-phenyl)-piperidin-1-yl]-1-pyridin-3-ylmethyl-ethyl}-amide] | 99 to 101 | – | –
COc1ccccc1C1CCN(C[C@@H](Cc2ccncc2)NC(=O)C2(C)CCCCC2)CC1 [Example 8, 1-Methyl-cyclohexanecarboxylic Acid {(1R)-2-[4-(2-Methoxy-phenyl)-piperidin-1-yl]-1-pyridin-4-ylmethyl-ethyl}-amide] | – | 0.63 | Emax (human 5HT1A receptor [2]; [3]): 0%
COc1ccccc1C1=CCN(C[C@@H](Cc2ccccc2)NC(=O)C2(C)CCCCC2)CC1 (as salt: fumarate) [Example 4, (R)-1-Methyl-cyclohexanecarboxylic Acid {1-Benzyl-2-[4-(2-methoxy-phenyl)-3,6-dihydro-2H-pyridin-1-yl]-ethyl}-amide] | 102 to 104 | – | –
COc1ccccc1C1CCN(C[C@@H](Cc2ccncc2)N(C)C(=O)C2CCCCC2)CC1 [Example 10, Cyclohexanecarboxylic acid {(1R)-2-[4-(2-Methoxy-phenyl)-piperidin-1-yl]-1-pyridin-4-ylmethyl-ethyl}-methyl-amide] | – | 1.18 | Emax (human 5HT1A receptor [2]; [3]): 0%; IC50 (human 5HT1A receptor [2]): 19.3 nM
COc1ccccc1C1CCN(C[C@@H](Cc2ccccc2)NC(=O)C2(C)CCCCC2)CC1 (as salt: fumarate) [Example 5, (R)-1-Methyl-cyclohexanecarboxylic Acid {1-Benzyl-2-[4-(2-methoxy-phenyl)-piperidin-1-yl]-ethyl}-amide] | 77 to 79 | – | –
COc1ccc(F)cc1C1=CCN(C[C@@H](Cc2ccccc2)N(C)C(=O)C2(C)CCCCC2)CC1 [Example 2, 1-Methyl-cyclohexanecarboxylic Acid {(1R)-1-Benzyl-2-[4-(5-fluoro-2-methoxy-phenyl)-1,2,5,6-tetrahydro-4H-pyridin-1-yl]-ethyl}-methyl-amide] | – | 4.9 | cAMP Emax (human 5HT1A receptor [2]; [3]): 0%
COc1ccccc1C1CCN(C[C@@H](Cc2cccnc2)N(C)C(=O)C2CCCCC2)CC1 (as salt: hydrochloride) [Example 9, Cyclohexanecarboxylic Acids {(1R)-2-[4-(2-Methoxy-phenyl)-piperidin-1-yl]-1-pyridin-3-ylmethyl-ethyl}-methyl-amide] | 148 to 150 | – | –
COc1ccccc1C1=CCN(C[C@@H](Cc2ccccc2)NC(=O)C2CCCCC2)CC1 [Example 3, (R)-Cyclohexanecarboxylic Acid {1-Benzyl-2-[4-(2-methoxy-phenyl)-3,6-dihydro-2H-pyridin-1-yl]-ethyl}-amide] | – | 0.22 | EC50 (human 5HT1A receptor [2]): 3.4 nM
COc1ccccc1C1=CCN(C[C@@H](Cc2ccccc2)NC(=O)C2(C)CCCCC2)CC1 [Example 4, (R)-1-Methyl-cyclohexanecarboxylic Acid {1-Benzyl-2-[4-(2-methoxy-phenyl)-3,6-dihydro-2H-pyridin-1-yl]-ethyl}-amide] | – | 0.25 | EC50 (human 5HT1A receptor [2]): 4.3 nM
COc1ccccc1C1CCN(C[C@@H](Cc2cccnc2)NC(=O)C2(C)CCCCC2)CC1 [Example 7, 1-Methyl-cyclohexanecarboxylic Acid {(1R)-2-[4-(2-Methoxy-phenyl)-piperidin-1-yl]-1-pyridin-3-ylmethyl-ethyl}-amide] | – | 0.74 | Emax (human 5HT1A receptor [2]; [3]): 0%; IC50 (human 5HT1A receptor [2]): 38 nM
